± gives the expanded uncertainty stated by the source.
Tests used:
[1] = Molar enthalpy of transition or fusion; details: Crystal; DSC
[2] = for mass density: 298.15 K, 101.33 kPa, Liquid, Pycnometric method

Compound | Molar enthalpy of transition or fusion [1] [kcal/mol] | Normal melting temperature ([2]; Crystal, DTA) [°C] | mass density [2] [kg/m3]
CNC(=O)NC [1,3-dimethylurea] | 3.05 ± 0.0932 | 103.20 ± 1.1 | 
CC(C)=O [acetone] |  |  | 785.1 ± 1.4
CC#N [acetonitrile] |  |  | 777 ± 1.4
CCC(C)O (stereo not drawn) [butan-2-ol] |  |  | 802.4 ± 1.5
CCCCOC(C)=O [butyl ethanoate] |  |  | 875.8 ± 1.6
CCOC(C)=O [ethyl acetate] |  |  | 894.4 ± 1.6
CC(C)O [propan-2-ol] |  |  | 781.2 ± 1.4

Reference: the NIST ThermoML archive (doi:10.1016/j.jct.2015.12.032)
